How the values were obtained:
all nine weed species = assay: Greenhouse pre-emergence dose-response bioassay, across all nine weed species; format: in vivo; conditions: averaging across all nine weed species
Source text: A greenhouse experiment was designed to determine if the extended control of Dalmatian toadflax and downy brome provided by indaziflam in the field was due to increased residual seedling control. This experiment was designed to compare indaziflam's pre-emergence efficacy to the currently recommended herbicides (aminocyclopyrachlor and aminopyralid) for annual, biennial, and perennial weed control in non-crop areas. […] This allows for direct comparisons between herbicides on an active ingredient basis for aminopyralid, aminocyclopyrachlor, and indaziflam. […]
Plants were harvested at the soil surface approximately 4 to 5 week-after-treatment (WAT) depending on the growth stage of each species. Weights were recorded after samples were dried for 5 days at 60° C. Percent dry weight reduction was calculated relative to the non-treated control plants for each treatment.
Data from the greenhouse dose-response experiment were first analyzed using the PROC MIXED method in SAS 9.3 with treatment as a fixed effect and experiment and replicate as random effects (SAS Institute 2010). […] The herbicide concentrations resulting in 50% reduction in plant biomass (GR50) compared to the non-treated control were determined for each invasive weed species using four-parameter log-logistic regression. […]

[1] = system: downy brome, common mullein, Canada thistle, teasel, houndstongue, Scotch thistle, diffuse knapweed, field bindweed; assay: Seedling control of invasive weeds versus untreated (FIG. 4A-4D); conditions: in vivo
[2] = average; cited from earlier work

## Cc1ccc2c(c1)[C@H](Nc1nc(N)nc(C(C)F)n1)[C@@H](C)C2 (mixture of isomers) [Indaziflam, N2-[(1R,2S)-2,3-dihydro-2,6-dimethyl-1H-inden-1-yl]-6-[(1RS)-1-fluoroethyl]-1,3,5-triazine-2,4-diamine]
All nine weed species
  times more active than aminocyclopyrachlor: 29
  times more active than aminopyralid: 52
[1]
  seedling control of invasive weeds compared with the untreated (FIG. 4A-4D): improved seedling control of invasive weeds
[2]
  water solubility: 3.6 µg/mL
